The structures appear in SMILES notation.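 Values below derive from 48-hour exposures of cells grown in 96-well plates, with endpoints linearly interpolated between the two concentrations bracketing the appropriate inhibition level. Here, GI50 denotes the concentration required for 50% inhibition of growth.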 Active and inactive are the calls of the source. No stated cut-off is given here; in the data, active = GI50 up to about 1.1 µM and inactive = higher.

Some test systems named below: OVCAR-3; IGROV-1; UACC-257; SR; HT-29; U-251; MOLT-4; SF-539; KM12; HL-60; ACHN; M14; RPMI-8226; NCI/ADR-RES; CAKI-1; SK-MEL-28.
Experiment in all cases: NCI-60 cell line screen, 48 h

Regarding `Cc1ccc(O)c(C2=CC(c3cccc(Cl)c3)SC(=N)N2)c1` (stereo not given), the GI50 is 29.5 µM (inactive) with OVCAR-3; 19.1 µM (inactive) in the assay on IGROV-1; 20.6 µM (inactive) in the assay on UACC-257; 17.3 µM (inactive) with SR; 20.8 µM (inactive) with HT-29; 18.3 µM (inactive) in the assay on U-251. The GI50 is 19.1 µM (inactive) in the assay on MOLT-4; 23 µM (inactive) in the assay with SF-539; 24.9 µM (inactive) in the assay with KM12; 30 µM (inactive) in the assay on HL-60; 24.2 µM (inactive) in the assay with ACHN; 26 µM (inactive) with M14. For the same compound, the figures for the GI50 with RPMI-8226, with NCI/ADR-RES and in the assay with CAKI-1 were 17.7 µM (inactive), 29.2 µM (inactive) and 28.2 µM (inactive), respectively.

On to `COc1ccc(C(C)c2cc3c(cc2O)OCO3)cc1` (stereo not given), for which the GI50 is 13.9 µM (inactive) in the assay on OVCAR-3; 15.8 µM (inactive) in the assay with IGROV-1; 15.6 µM (inactive) in the assay on UACC-257; 2.74 µM (inactive) in the assay on SR; 12.6 µM (inactive) in the assay on HT-29; 15.1 µM (inactive) with U-251. The GI50 with MOLT-4 was 9.02 µM (inactive); with SF-539, 16.9 µM (inactive); with KM12, 12.9 µM (inactive); in the assay on HL-60, 13.2 µM (inactive); with ACHN, 19.7 µM (inactive); in the assay on M14 it was 13.8 µM (inactive). For the same compound, the GI50 in the assay on RPMI-8226 is 16.8 µM (inactive); in the assay with NCI/ADR-RES, 10.8 µM (inactive); in the assay with CAKI-1, 25.2 µM (inactive); in the assay with SK-MEL-28, 16.8 µM (inactive).

Take `Cc1cc2c(cc1C)C(=O)C1(C2)Cc2cc3c(cc2C1=O)CCC3` (stereo not given): the GI50 in the assay on OVCAR-3, with IGROV-1, in the assay with UACC-257, in the assay with SR, with HT-29 and in the assay with U-251 was > 100 µM (inactive) in each case. For the same compound, the GI50 was > 100 µM (inactive) in the assay with MOLT-4; 4.95 µM (inactive) with SF-539; > 100 µM (inactive) in the assay with KM12; > 100 µM (inactive) in the assay on HL-60; > 100 µM (inactive) in the assay with ACHN; 44.1 µM (inactive) in the assay on M14. Also, the GI50 in the assay on RPMI-8226, in the assay on NCI/ADR-RES, in the assay with CAKI-1 and in the assay with SK-MEL-28 was > 100 µM (inactive) each time.

With `O=c1c2cc(Cl)ccc2[nH]c2cc(O)cc(O)c12`, the GI50 in the assay on OVCAR-3 was 8.55 µM (inactive); in the assay on IGROV-1 it was > 10 µM (inactive); with UACC-257 it was 5.41 µM (inactive); in the assay on SR it was > 10 µM (inactive); with HT-29 it was > 10 µM (inactive); with U-251, > 10 µM (inactive). In addition, the GI50 in the assay on MOLT-4, with SF-539, in the assay with KM12, in the assay on HL-60, in the assay with ACHN and in the assay on M14 was > 10 µM (inactive) throughout. Besides, the GI50 with RPMI-8226, with NCI/ADR-RES, with CAKI-1 and in the assay with SK-MEL-28 was > 10 µM (inactive) in each case.

In the case of `CC(=O)Oc1ccc(/C=C/C(=O)OCCOC(=O)/C=C/c2ccc(OC(C)=O)c(OC(C)=O)c2)cc1OC(C)=O`, the GI50 in the assay with OVCAR-3 is 5.36 µM (inactive); in the assay on IGROV-1, 2.95 µM (inactive); in the assay with UACC-257, 10.5 µM (inactive); with SR, 3.78 µM (inactive); in the assay with HT-29, 18.6 µM (inactive); in the assay with U-251 it was 4.99 µM (inactive). The GI50 in the assay with MOLT-4 was 5.61 µM (inactive); with SF-539, 2.72 µM (inactive); in the assay on KM12, 10.1 µM (inactive); in the assay with HL-60 it was 3.95 µM (inactive); with ACHN, 4.05 µM (inactive); in the assay with M14 it was 10.8 µM (inactive). For the same compound, the GI50 is 4.12 µM (inactive) in the assay with RPMI-8226, 4.06 µM (inactive) with NCI/ADR-RES, 3.26 µM (inactive) in the assay with CAKI-1 and 14.4 µM (inactive) in the assay with SK-MEL-28.

For the compound `CC#CC(O)(C(=O)OC1CC(C)N(C)C(C)(C)C1)C1CCCC1` (stereo not given), the GI50 in the assay on OVCAR-3, in the assay with IGROV-1, in the assay with UACC-257, in the assay with SR, in the assay with HT-29 and with U-251 was > 100 µM (inactive) throughout. Also, the GI50 in the assay on MOLT-4, in the assay on SF-539, in the assay with KM12, in the assay on HL-60, with ACHN and with M14 was > 100 µM (inactive) throughout. In addition, the GI50 in the assay on RPMI-8226 is > 100 µM (inactive); in the assay on NCI/ADR-RES, 29 µM (inactive); in the assay with CAKI-1, > 100 µM (inactive); in the assay on SK-MEL-28, > 100 µM (inactive).

For the compound `Cc1cc(S(=O)(=O)Nc2n[nH]c(-c3ccc(Cl)cn3)n2)c(S)cc1Cl`, the GI50 in the assay with OVCAR-3 is 45.6 µM (inactive); in the assay on IGROV-1, 44.4 µM (inactive); in the assay with UACC-257, > 100 µM (inactive); in the assay on SR, 47.8 µM (inactive); in the assay on HT-29, 39.3 µM (inactive); with U-251, 39 µM (inactive). In addition, the GI50 in the assay with MOLT-4 is 40.6 µM (inactive); in the assay with SF-539, 44.1 µM (inactive); in the assay with KM12, 36.3 µM (inactive); in the assay on HL-60, 42 µM (inactive); with ACHN it was 32.9 µM (inactive); in the assay on M14, 76.6 µM (inactive). The GI50 with RPMI-8226 was > 100 µM (inactive); in the assay on NCI/ADR-RES it was 85.5 µM (inactive); in the assay on CAKI-1 it was 44 µM (inactive); in the assay on SK-MEL-28, > 100 µM (inactive).

As to `CCOP(=O)(CN1CCNCCNCC1)OCC`, the GI50 with OVCAR-3, in the assay with IGROV-1, in the assay on UACC-257, with SR, with HT-29 and in the assay on U-251 was > 100 µM (inactive) throughout. The GI50 with MOLT-4 was > 100 µM (inactive); in the assay with SF-539 it was > 100 µM (inactive); with KM12 it was > 100 µM (inactive); with HL-60 it was 92.7 µM (inactive); with ACHN, > 100 µM (inactive); in the assay with M14 it was > 100 µM (inactive). The GI50 in the assay on RPMI-8226, with NCI/ADR-RES, in the assay with CAKI-1 and in the assay with SK-MEL-28 was > 100 µM (inactive) each time.

For the compound `CCCCCC1=CC(=O)C1(Cl)Cl`, the GI50 is 8.69 µM (inactive) in the assay with OVCAR-3; 18.4 µM (inactive) in the assay on IGROV-1; 12.2 µM (inactive) in the assay on UACC-257; 6 µM (inactive) with SR; 14.6 µM (inactive) in the assay on HT-29; 9.23 µM (inactive) in the assay with U-251. Moreover, the GI50 in the assay with MOLT-4 is 3.67 µM (inactive); with SF-539, 12.4 µM (inactive); in the assay with KM12 it was 13.2 µM (inactive); in the assay with HL-60 it was 1.83 µM (inactive); in the assay on ACHN, 8.3 µM (inactive); in the assay with M14, 18.4 µM (inactive). In addition, the GI50 was 2.77 µM (inactive) with RPMI-8226, 17.9 µM (inactive) with NCI/ADR-RES, 8.3 µM (inactive) in the assay with CAKI-1 and 14.5 µM (inactive) in the assay on SK-MEL-28.

For `COc1ccc2c(c1)c(CC(=O)O)c(C)n2C(=O)c1ccc(Cl)cc1`, the GI50 in the assay with OVCAR-3 is 56.6 µM (inactive); with IGROV-1, > 100 µM (inactive); in the assay with UACC-257, > 100 µM (inactive); with SR, 16.3 µM (inactive); in the assay with HT-29, > 100 µM (inactive); in the assay on U-251, 43.1 µM (inactive). The GI50 in the assay with MOLT-4 was > 100 µM (inactive); in the assay with SF-539, 98.2 µM (inactive); with KM12, 60.8 µM (inactive); in the assay on HL-60, 44.3 µM (inactive); in the assay on ACHN it was > 100 µM (inactive); in the assay on M14 it was > 100 µM (inactive). Besides, the GI50 was 28.5 µM (inactive) in the assay on RPMI-8226, > 100 µM (inactive) in the assay on NCI/ADR-RES, 29.6 µM (inactive) in the assay with CAKI-1 and > 100 µM (inactive) in the assay on SK-MEL-28.

Regarding `CCCCC1Cc2ccccc2-c2nc3ccccc3n21` (stereo not given), the GI50 with OVCAR-3 is 15.2 µM (inactive); in the assay on IGROV-1, 15.8 µM (inactive); in the assay with UACC-257, 17.5 µM (inactive); in the assay on SR, 5.57 µM (inactive); with HT-29, 14.5 µM (inactive); in the assay on U-251, 16.4 µM (inactive). Besides, the GI50 with MOLT-4 is 13.6 µM (inactive); with SF-539, 19.6 µM (inactive); in the assay on KM12 it was 15.4 µM (inactive); in the assay with HL-60 it was < 0.01 µM (active); with ACHN, 17.1 µM (inactive); with M14, 18.1 µM (inactive). Also, the GI50 was 12.1 µM (inactive) in the assay on RPMI-8226, 15.7 µM (inactive) with NCI/ADR-RES, 15.5 µM (inactive) in the assay on CAKI-1 and 16.7 µM (inactive) in the assay on SK-MEL-28.

For the compound `CCCC(CC)c1c(O)c(O)c(C(CC)CCC)c(C(CC)CCC)c1C(CC)CCC` (stereo not given), the GI50 in the assay on OVCAR-3, in the assay with IGROV-1, in the assay with UACC-257, with SR, in the assay with HT-29 and with U-251 was > 10 µM (inactive) each time. Moreover, the GI50 in the assay with SF-539, in the assay with KM12, in the assay with HL-60, in the assay on ACHN, in the assay on M14 and in the assay on RPMI-8226 was > 10 µM (inactive) each time. The GI50 in the assay on NCI/ADR-RES, with CAKI-1 and with SK-MEL-28 was > 10 µM (inactive) in each case.

Turning to `O=C(NNS(=O)(=O)c1ccccc1)c1csc(NC(=S)NC2CCCCC2)n1`, the GI50 with OVCAR-3 was 4.07 µM (inactive); with IGROV-1, 26.5 µM (inactive); with UACC-257 it was 22.8 µM (inactive); with SR, 36.9 µM (inactive); in the assay with HT-29, 33.6 µM (inactive); in the assay with U-251, 33.5 µM (inactive). Moreover, the GI50 in the assay on MOLT-4 was 36.5 µM (inactive); with SF-539, 37.5 µM (inactive); with KM12, 36.3 µM (inactive); in the assay with HL-60 it was 69.5 µM (inactive); with ACHN, 33.5 µM (inactive); with M14, 39.2 µM (inactive). Moreover, the results for the GI50 in the assay with RPMI-8226, with NCI/ADR-RES and in the assay with CAKI-1 were 44.2 µM (inactive), 38.4 µM (inactive) and 28.4 µM (inactive), respectively.

The record behind these values is ChEMBL document CHEMBL1201862, “PubChem BioAssay data set” (2004).
